Here are results for 2 compounds from patent US10844411B2, “Inhibitors of sterol metabolism for their use to accumulate triglycerides in microalgae, and methods thereof” (Commissariat A L'energie Atomique Et Aux Energies …, priority 2014, dated 2020).

The test system of this assay is Nannochloropsis gaditana. Kind of assay: Nile Red staining of oil accumulation in Nannochloropsis gaditana incubated with inhibitors of sterol metabolism. It is filed as cell-based. To be noted: ESAW 1N1P and ESAW 10N10P media; time course at least 7 days; FIGS. 5 and 6. The protocol:
Experiments were performed in two different conditions of Nannochloropsis gaditana: cells were either cultured in ESAW containing 47 mg·L^−1 NaNO3 and 3 mg·L^−1 NaH2PO4 (medium 1N1P), or 470 mg/L NaNO3 and 30 mg·L^−1NaH2PO4) (medium 10N10P). Cells in an exponential growth phase were collected via centrifugation at 3500 rpm for 10 minutes. The supernatant was discarded and the cells were resuspended in the same volume of ESAW medium (either 1N1P or 10N10P). The cultures were centrifuged again at 3500 rpm, for 10 minutes, and the supernatant was discarded. The pellet was resuspended in ESAW (either 1N1P or 10N10P) to obtain a concentration of 2×10^6 cells/mL. […]
Each day, an aliquot was taken from each flask in order to perform a Nile Red stain and cell counts. […] In order to detect any background noise, fluorescence was measured at excitation and emission of 530 nm and 580 nm, respectively. […] After 20 minutes of incubation, Nile Red fluorescence was measured at excitation and emission of 530 nm and 580 nm, respectively.
Nile Red Fluorescence was normalized by calculating the relative fluorescence units per million cells. Results were expressed as a percentage of Nile Red fluorescence of Nannochloropsis gaditana cultured in complete medium (either ESAW (10N10P) or ESAW (1N1P)).

Consider `CN(Cc1ccc(C(C)(C)C)cc1)Cc1cccc2ccccc12` [Butenafine], for which the “accumulation of oil (Nile Red fluorescence per million cells)” value was “trigger the accumulation of oil”.

Take `C#C[C@]1(O)CC[C@H]2[C@@H]3CCc4cc(O)ccc4[C@H]3CC[C@@]21C` [Ethinylestradiol]: the “accumulation of oil (Nile Red fluorescence per million cells)” value was “trigger the accumulation of oil”.
